Experimental data published in PMC4421842 (Nature Communications, 2015).
≈ marks a conversion by molar mass, not a printed value.

Experiments:
human topoisomerase II = target: T1, human topoisomerase II (Homo sapiens, UniProt P11388); assay: Human topoisomerase decatenation assay; format: biochemical; conditions: decatenation assay
T1 construct: purchased Inspiralis
Protocol: The decatenation assay was performed with the Human Topo II Decatenation Assay Kit (Inspiralis), according to the manufacturer's instructions, with minor modifications. First, a master mix was made containing 2 μl of 10 × assay buffer (500 mM Tris-HCl pH 7.5, 1250, mM NaCl, 100 mM MgCl2, 50 mM DTT, 1,000 μg ml^−1 albumin), 0.67 μl of 30 mM ATP, 1.34 μl of 0.1 ng μl^−1 kDNA, and 14.3 μl of nuclease-free water per sample is made. DMSO or 30 × compound is added to a 0.5-ml Eppendorf tube (0.67 μl per tube). The master mix is then added to each tube (18.3 μl per tube). Finally, 1 U of human topoisomerase (1 μl of 1 U μl^−1 stock) is added to each tube for a final volume of 20 μl. The tubes are then incubated at 37 °C for 30 min. Reactions are stopped by the addition of 20 μl of 24:1 chloroform:isoamyl alcohol and 20 μl of stop dye (40% sucrose, 1 mM EDTA, 100 mM Tris-HCl pH 7.5, 0.5 μg ml^−1 bromophenol blue). Samples were run on 1% agarose gels containing 0.5 μg ml^−1 ethidium bromide for 1 h at 110 V or until the dye front was approximately halfway down the gel. Gels were imaged on a Molecular Imager Gel Doc XR+ (Biorad).

Herring Sperm DNA = assay: Intercalation assay (ethidium bromide displacement); format: binding
Protocol: Intercalation assays were performed as previously described. The ability of DNM-2 to intercalate into DNA was measured by an ethidium bromide displacement assay. Herring Sperm DNA (34 μg ml^−1 final) was premixed with buffer containing ethidium bromide (50 mM Tris base, 100 mM NaCl, 1 mM EDTA, 5 μM EtBr pH 7.5). Ninety-five microlitres of this solution was added to a 96-well plate containing 5 μl of DMSO solutions of compounds. […] Doxorubicin was used as a positive control. The reactions were allowed to incubate for 30 min. Fluorescence was then read on a Gemini microplate reader (Molecular Devices, excitation=545 nm, emission=595 nm).

[1] = In-vivo toxicity assessment, once daily for 10 days; set-up: species or system BALB/c mice; conditions: mice
Protocol: Toxicity was assessed as previously described. Specifically, heparinized whole blood was collected for assessment of total white blood cells, neutrophils, lymphocytes, haematocrit, platelets, creatinine, blood urea, nitrogen, albumin, alanine aminotransferase, alkaline phosphatase and total bilirubin. Mice were euthanized by overdosing with ketamine/xylazine and the heart, lung, kidney, liver, spleen, gastrointestinal tract and the brain were collected for histopathology. Tissue samples were fixed 24 h in 10% neutral buffered formalin, processed and paraffin embedded, sectioned (5 μm thickness) and stained with haematoxylin and eosin. All slides were systematically evaluated by a single board-certified veterinary anatomic pathologist (SL) for evidence of acute or chronic inflammation and toxicity. All lesions were characterized, recorded and scored for severity (minimal=1, mild=2, moderate=3, marked=4, and severe=5).

[2] = test system: FQR S. aureus (NRS3, FQR); assay: MIC, microdilution broth assay, FQR MRSA NRS3; format: cell-based; conditions: NRS3, S84L GyrA and S80F ParC, three independent replicates
S83L E. coli DNA gyrase = target: T2, S83L E. coli DNA gyrase (Escherichia coli, UniProt P0AES4+P0AES6, S83L); format: biochemical; conditions: DNA cleavage assay
T2 construct: His tag (pTRCHisA vector; purified on Ni-NTA); made in house; host or cells: E. coli One Shot BL21 Star (DE3)

human erythrocytes = assay: In-vitro haemolysis assay; format: cell-based; conditions: human red blood cells, 2 h at 37°C, 160 µg mL-1 or highest concentration solubility allowed
Protocol: Haemolysis assays were performed as previously described. Briefly, assays were performed using human erythrocytes within 3 days of receipt. One millilitre of human blood purchased from Bioreclamation, Inc. (Hicksville, NY) was centrifuged (10,000 × g, 2 min). The pellet was washed three times with sterile saline (0.9% NaCl in water) by repeated gentle suspension and centrifugation. The pellet was resuspended in RBC buffer (10 mM Na2HPO4, 150 mM NaCl, 1 mM MgCl2 pH 7.4). To evaluate haemolytic activity of DNM and derivatives, 1 μl either 3.2 mg ml^−1 DMSO stock (or the most concentrated stock of the compound available if not soluble at 3.2 mg ml^−1 in DMSO) was transferred to 0.5 ml Eppendorf tubes containing 19 μl RBC buffer. Negative control tubes contained 1 μl DMSO and 19 μl RBC buffer, and positive control tubes contained 1 μl DMSO and 19 μl sterile deionized water. A suspension of washed erythrocytes (10 μl) was added to each tubes and samples were incubated at 37 °C for 2 h. Samples were centrifuged at 10,000 × g for 2 min and the supernatants from each sample (25 μl) were transferred to a clear, sterile 384-well plate. The absorbance of these supernatants was measured at 540 nm using a SpectraMaxPlus384 absorbance plate reader (Molecular Devices). Per cent haemolysis of each sample was calculated relative to the average absorbance values measured for positive controls.

[3] = test system: normal (that is, non-cancerous) cell lines; set-up: method as in PMID 10993200; conditions: previously published data; cited from earlier work
[4] = 50 mg kg-1 oral gavage once daily for 10 days
[5] = 50 mg kg^−1 oral gavage once daily for 10 days

CCn1c(=O)cc(C)c2cc3c(C)cc(=O)n4c3c(c21)OC4 [DNM-2]
concentration inhibiting human topoisomerase II (human topoisomerase II): > 30 µM | concentration with significant DNA intercalation (Herring Sperm DNA): > 30 µM | ALP [1, 4]: 60 ± 10 U/L | ALT [1, 4]: 36 ± 1 U/L | Albumin [1, 4]: 3.2 ± 0.1 g/dL | BUN (Urea) [1, 4]: 32.0 ± 0.4 mg/dL | Creatine [1, 4]: 0.2 ± 0.0 mg/dL | Globulin [1, 4]: 2.62 ± 0.05 g/dL | Hematocrit [1, 4]: 40 ± 1% | Hemoglobin [1, 4]: 14.2 ± 0.3 g/dL | Lymphocyte [1, 4]: 81 ± 3 % of WBC | Mean Cell Volume [1, 4]: 47.3 ± 0.4 fL | Neutrophil [1, 4]: 18 ± 3 % of WBC | RBC [1, 4]: 8.5 ± 0.2 X106/µL | WBC [1, 4]: 3800 ± 300 cells/µL | Platelet ([1]; 50 mg kg-1 oral gavage once daily for 10 days, counts low because of platelet clumps): 60,000 ± 10,000 cells/µL | Total Bilirubin ([1]; 50 mg kg-1 oral gavage once daily for 10 days, increased also in vehicle due to hemolysis during blood collection): 0.7 ± 0.1 mg/dL | adipocytes and triglyceride levels [1, 5]: Increased vacuolation of white and brown adipocytes with a minimal increase in triglyceride levels | haematological and non-haematological toxicity markers [1, 5]: No clinically significant evidence for myelosuppression, renal injury or hepatic toxicity was identified | histopathology of kidney, brain, lung, liver, spleen, heart and stomach [1, 5]: did not reveal any evidence of toxicity | histopathology of small intestine sections [1, 5]: mild intestinal dilation associated with villi atrophy

Cc1cc(=O)n(C)c2c3c4c(cc12)c(C)cc(=O)n4CO3 [DNM, deoxynybomycin]
MIC against S. aureus NRS3 [2]: 0.03 µg/mL (≈ 0.106 µM) | MIC ([2]; Staphylococcus aureus, read-out: MIC against S. aureus NRS3): 0.03 µg/mL (≈ 0.106 µM) | concentration giving significant buildup of OC DNA (P<0.05) (S83L E. coli DNA gyrase): 0.17 µM | haemolysis (human erythrocytes): none of these compounds induce haemolysis | toxicity to normal (non-cancerous) cell lines [3]: non-toxic
